Like-named read-outs stand apart in the source and are kept apart here.
Experiments:
ASD phenotype 2 patients = conditions: for CGI-I: after 3 days of administration; for CGI-I / GGI-S: 7-point scale; for Clinical significance / GGI-S: after challenge test; for ADI-R-RI S score / ADI-R-C S score / ADI-R-SI S score: day 3 of challenge test; for ADI-R-SI S score: baseline 16; for ADI-R-C Change (%) / ADI-R-RI Change (%) / ADI-R-SI Change (%): day 3 vs baseline
Experimental: (§1) The effects of sulforaphane containing Broccoli sprout extract was observed and quantified in 7 individuals suffering from ASD and previously classified as either phenotype 1 or phenotype 2 patients.
We describe a procedure consisting of an evaluation of patients with ASD prior and after administration of broccoli sprout extract. The extract was prepared from selected broccoli seeds known to have high yield of sulforaphane which were surface-disinfected and grown (sprouted) for 3 days in a commercial sprouting facility under controlled light and moisture conditions. A boiling water extract was prepared, filtered, cooled, and treated with the enzyme myrosinase (from daikon sprouts) to convert precursor glucosinolates to isothiocyanates. Behavioral evaluation of patients was performed prior, during and after administration of sulforaphane-containing broccoli sprout extract. Baseline evaluation of patients was performed using standard clinical endpoints (ADI-R subscales ADI-SI, ADI-C and ADI-RI).
Challenge regimen consisted of the administration of a Broccoli Sprout Extract dose corresponding to a total daily dosage of 4 μmol/kg of sulforaphane, administered in 3 doses over the course of the day.
The assessment of baseline scores and post challenge test scores was conducted by two experienced clinicians with extensive experience in conducting ASD clinical assessments, both of which separately rated the patients. In case of diverging scores in test subscales at baseline or after administration of the challenge test, the lowest severity score was retained. Assessment of clinical endpoints was performed at day 3 of administration of challenge test. Behavioral Outcome Measures: (primary efficacy endpoints): ABC, SRS; CGI-S, CGI-I and ADI-R (ADI-SI, ADI-C, ADI-RI).

ASD phenotype 1 patients = test: Challenge test with broccoli sprout extract (sulforaphane), behavioral scores; format: in vivo, humans; conditions: selected patient cohort
Experimental: as §1
The extract was prepared from selected broccoli seeds known to have high yield of sulforaphane which were surface-disinfected and grown (sprouted) for 3 days in a commercial sprouting facility under controlled light and moisture conditions.

[1] = Singh K et al., PNAS 2014; cited from earlier work
[2] = tested on: lymphoblastoid cell lines of ASD phenotype 1 patients; test: Biolog Phenotype Mammalian MicroArrays, NADH production (redox dye); format: cell-based, human; conditions: cells exposed to the growth factor or cytokine; FIG. 1 (AUC) and Table 1
Experimental: From all subjects, blood samples were collected and lymphoblastoid cell lines generated. Briefly, tubes containing anticoagulant citrate dextrose (ACD) were used to collect blood samples via venipuncture, in order to ensure that the blood cells remained metabolically active. The tubes were kept at room temperature and processed within 24 hours.
Cell lines were obtained by immortalization of lymphocytes from blood samples using Epstein-Barr virus.
Energy production of cells was measured using commercially available Phenotype Mammalian MicroArrays (PM-Ms, Biolog, Hayward, Calif., USA).
The compound in each well was designed to be used by the cells, either as the sole energy source or as the metabolic effector influencing the utilization of an energy source (α-D-glucose) added in the cell suspension. […] Before plating, cell viability and number were assessed utilizing a BioRad cell counter and a trypan blue dye. The concentration of live cells required for plating was 4×10^5 cells/mL, corresponding to 20,000 cells per well in a volume of 50 μL. […] Cells were incubated for 48 h at 37° C. in 5% CO2, using the modified Biolog IF-M1 medium.
The Biolog IF-M1 medium was modified for plates PM-M1 to M4 by adding the following to 100 mL of Biolog IF-M1: 1.1 mL of 100× penicillin/streptomycin solution, 0.16 mL of 200 mM glutamine (final concentration 0.3 mM), and 5.3 mL of Fetal Bovine Serum (FBS, final concentration 5%). For plates PM-M5 to M8, 5.5 mM α-D-glucose will be added in place of FBS.
During the 48-hour incubation, the only energy source the cells had was the chemical in the well. After this first incubation, Biolog Redox Dye Mix MB was added (10 μL/well) and the plates were incubated under the same conditions for an additional 24 hours. As the cells metabolized the energy source, tetrazolium dye in the media was reduced, producing a purple color according to the amount of NADH generated.
For the last 24 hours of the experiment, the plates were incubated in the Omnilog system, which collects optical density readings every 15 minutes, generating 96 data-points for each well. The system also elaborated the kinetic curve for the metabolic reaction in each well and extrapolated parameters such as slope, highest point, endpoint, area under the curve (AUC), and lag.
At the end of the 24-hour incubation, the plates were analyzed utilizing a microplate reader with readings at 590 and 750 nm. The first value (A590) indicated the highest absorbance peak of the redox dye and the second value (A750) gave a measure of the background noise. The relative absorbance (A590-750) was calculated per well.

[3] = Example 4 Patient 1 (phenotype 2)
[4] = Example 4 Patient 2 (phenotype 2)

## C[S@@+]([O-])CCCCN=C=S [sulforaphane, 1-isothiocyanato-4R-(methylsulfinyl)butane]
ASD phenotype 2 patients; [3]
  CGI-I: 2
  Clinical significance: Very much improved
  GGI-S: 4
  ADI-R-SI S score: 12
  ADI-R-C Change (%): −20%
  ADI-R-RI Change (%): 0%
  ADI-R-SI Change (%): −33%
ASD phenotype 2 patients; Example 4 Patient 1 (phenotype 2), baseline 3
  ADI-R-RI S score: 3
ASD phenotype 2 patients; Example 4 Patient 1 (phenotype 2), baseline 12
  ADI-R-C S score: 10
ASD phenotype 2 patients; [4]
  CGI-I: 2
  Clinical significance: Very much improved
  GGI-S: 4
  ADI-R-SI S score: 14
  ADI-R-C Change (%): −22%
  ADI-R-RI Change (%): −25%
  ADI-R-SI Change (%): −14%
ASD phenotype 2 patients; Example 4 Patient 2 (phenotype 2), baseline 5
  ADI-R-RI S score: 4
ASD phenotype 2 patients; Example 4 Patient 2 (phenotype 2), baseline 11
  ADI-R-C S score: 9
ASD phenotype 1 patients
  reducing disease severity as measured through the ADI-R, SRS and GGI-S/CGI-I: not effective
[1]
  tolerability of administration to humans: well tolerated
  toxicity: low toxicity

## FGF-1(aFGF): growth factor that selectively targets the PI3K-Akt-mTOR pathway
[2]
  production of NADH in ASD phenotype 1 cells compared to TDs and non-phenotype 1 cells: significantly reduced production of NADH

## IGF-I: insulin-like growth factor 1
[2]
  production of NADH in ASD phenotype 1 cells compared to TDs and non-phenotype 1 cells: no significant differences

## IL-1beta: Th1 cytokine
[2]
  production of NADH in ASD phenotype 1 cells compared to TDs and non-phenotype 1 cells: significantly lower levels of NADH

## IL-6: Th1 cytokine
[2]
  production of NADH in ASD phenotype 1 cells compared to TDs and non-phenotype 1 cells: significantly lower levels of NADH

## PDGF-AB: platelet-derived growth factor AB
[2]
  production of NADH in ASD phenotype 1 cells compared to TDs and non-phenotype 1 cells: no significant differences

## hGH(Somatotropin): growth factor that selectively targets the PI3K-Akt-mTOR pathway
[2]
  production of NADH in ASD phenotype 1 cells compared to TDs and non-phenotype 1 cells: significantly reduced production of NADH
